Target: bovine cardiac myofibrils (full-length cardiac myosin ATPase in the native sarcomere) (Bos taurus (Bovine), UniProt Q9BE39)
Assay: Skinned bovine cardiac myofibril ATPase assay (PK/LDH-coupled)
Type: biochemical
Conditions: Ca2+ activating to 75% of maximal rate; for CDMF75 IC15: concentration giving 15% inhibition; for IC50: read-out: CDMF75 IC50
Procedure, shortened: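 Triton-skinned bovine left-ventricle myofibrils (1 mg/mL) in PM 12 buffer (12 mM PIPES, 2 mM MgCl2, pH 6.8) with 50 μM ATP, 0.6 mM EGTA and CaCl2 set for 50% or 75% activation. Steady-state ATPase inhibition followed by PK/LDH-coupled NADH oxidation at 340 nm.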

Chain of bovine cardiac myofibrils (full-length cardiac myosin ATPase in the native sarcomere) (Q9BE39 whole entry): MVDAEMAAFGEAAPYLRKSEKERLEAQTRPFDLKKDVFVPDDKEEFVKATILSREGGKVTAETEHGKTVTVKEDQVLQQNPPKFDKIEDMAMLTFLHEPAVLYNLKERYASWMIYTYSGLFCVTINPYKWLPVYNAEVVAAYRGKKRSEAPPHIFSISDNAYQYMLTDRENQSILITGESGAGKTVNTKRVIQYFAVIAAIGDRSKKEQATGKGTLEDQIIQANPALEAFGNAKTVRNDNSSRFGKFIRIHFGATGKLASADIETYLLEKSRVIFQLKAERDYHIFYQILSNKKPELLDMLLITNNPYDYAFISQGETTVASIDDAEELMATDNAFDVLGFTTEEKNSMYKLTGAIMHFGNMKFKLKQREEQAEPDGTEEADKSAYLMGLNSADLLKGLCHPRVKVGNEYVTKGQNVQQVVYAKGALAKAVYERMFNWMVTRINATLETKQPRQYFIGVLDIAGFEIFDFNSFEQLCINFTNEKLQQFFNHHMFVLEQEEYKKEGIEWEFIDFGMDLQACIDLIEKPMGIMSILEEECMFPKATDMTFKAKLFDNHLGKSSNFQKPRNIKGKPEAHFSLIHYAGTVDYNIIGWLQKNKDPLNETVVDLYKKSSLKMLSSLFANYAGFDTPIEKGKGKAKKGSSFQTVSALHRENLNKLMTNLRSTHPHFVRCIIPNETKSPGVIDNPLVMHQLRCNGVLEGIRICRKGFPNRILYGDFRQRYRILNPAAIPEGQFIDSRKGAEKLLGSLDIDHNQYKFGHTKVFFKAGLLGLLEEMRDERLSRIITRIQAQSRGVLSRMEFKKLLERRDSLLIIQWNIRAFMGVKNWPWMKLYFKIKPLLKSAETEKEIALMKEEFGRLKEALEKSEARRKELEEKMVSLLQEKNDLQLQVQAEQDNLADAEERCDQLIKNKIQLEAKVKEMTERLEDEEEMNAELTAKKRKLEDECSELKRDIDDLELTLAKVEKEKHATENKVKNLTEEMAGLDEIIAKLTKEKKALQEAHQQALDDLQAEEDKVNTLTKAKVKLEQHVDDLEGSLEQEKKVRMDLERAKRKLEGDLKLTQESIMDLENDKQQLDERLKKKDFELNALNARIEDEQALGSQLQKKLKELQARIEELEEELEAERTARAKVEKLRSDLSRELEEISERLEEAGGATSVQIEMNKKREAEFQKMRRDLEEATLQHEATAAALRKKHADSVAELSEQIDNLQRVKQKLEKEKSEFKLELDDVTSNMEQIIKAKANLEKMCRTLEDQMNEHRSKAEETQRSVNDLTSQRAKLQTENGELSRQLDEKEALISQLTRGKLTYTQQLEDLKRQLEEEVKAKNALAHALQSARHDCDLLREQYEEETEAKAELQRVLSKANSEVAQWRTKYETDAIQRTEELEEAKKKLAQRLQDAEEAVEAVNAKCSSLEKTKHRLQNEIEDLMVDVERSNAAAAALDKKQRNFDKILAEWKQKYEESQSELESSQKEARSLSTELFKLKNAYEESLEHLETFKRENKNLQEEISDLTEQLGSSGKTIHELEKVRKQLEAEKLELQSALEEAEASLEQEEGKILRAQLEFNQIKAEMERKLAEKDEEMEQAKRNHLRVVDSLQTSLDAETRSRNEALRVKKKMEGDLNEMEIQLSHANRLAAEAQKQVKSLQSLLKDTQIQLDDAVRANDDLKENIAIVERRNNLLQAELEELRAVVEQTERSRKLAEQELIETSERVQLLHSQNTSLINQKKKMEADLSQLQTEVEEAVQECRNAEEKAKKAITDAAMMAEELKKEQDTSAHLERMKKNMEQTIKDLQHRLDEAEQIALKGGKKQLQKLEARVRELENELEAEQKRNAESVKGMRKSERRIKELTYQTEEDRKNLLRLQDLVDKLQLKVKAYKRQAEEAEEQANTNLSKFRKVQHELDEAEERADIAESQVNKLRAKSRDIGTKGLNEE
Chain of bovine cardiac myofibrils (full-length cardiac myosin ATPase in the native sarcomere) (P85100 whole entry partner): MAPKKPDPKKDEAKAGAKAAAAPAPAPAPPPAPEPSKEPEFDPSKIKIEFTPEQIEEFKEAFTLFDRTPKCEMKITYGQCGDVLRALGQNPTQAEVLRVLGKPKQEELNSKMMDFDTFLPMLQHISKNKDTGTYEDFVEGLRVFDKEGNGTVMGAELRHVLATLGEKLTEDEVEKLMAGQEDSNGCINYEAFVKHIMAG
Chain of bovine cardiac myofibrils (full-length cardiac myosin ATPase in the native sarcomere) (Q3SZE5 whole entry partner): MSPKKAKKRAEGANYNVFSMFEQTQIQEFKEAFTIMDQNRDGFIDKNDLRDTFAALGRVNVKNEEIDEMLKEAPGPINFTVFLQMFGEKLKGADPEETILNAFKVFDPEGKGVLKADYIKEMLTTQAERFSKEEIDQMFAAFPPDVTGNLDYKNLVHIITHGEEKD

Row | SMILES | CDMF75 IC15 [nM] | IC50 [nM]
1 | CCc1nc(-c2ccc3c(c2)CC[C@H]3NC(=O)c2cn(CCCO)nc2C)no1 [Compound 612, (R)-N-(5-(5-ethyl-1,2,4-oxadiazol-3-yl)-2,3-dihydro-1H-inden-1-yl)-1-(3-hydroxypropyl)-3-methyl-1H-pyrazole-4-carboxamide] | 700 | 2100
2 | CCc1nc(-c2ccc3c(c2)CC[C@H]3NC(=O)c2cnc(CO)n2C)no1 [Compound 613, (R)-N-(5-(5-ethyl-1,2,4-oxadiazol-3-yl)-2,3-dihydro-1H-inden-1-yl)-2-(hydroxymethyl)-1-methyl-1H-imidazole-5-carboxamide] | 400 | 1400
3 | CCc1nc(-c2ccc3c(c2)CC[C@H]3NC(=O)c2ccc(=O)n(CC(=O)O)c2)no1 [Compound 614, (R)-2-(5-((5-(5-ethyl-1,2,4-oxadiazol-3-yl)-2,3-dihydro-1H-inden-1-yl)carbamoyl)-2-oxopyridin-1(2H)-yl)acetic acid] | 3400 | 14700
4 | CCc1nc(-c2ccc3c(c2)CC[C@H]3NC(=O)c2cn(C)nn2)no1 [Compound 616, (R)-N-(5-(5-ethyl-1,2,4-oxadiazol-3-yl)-2,3-dihydro-1H-inden-1-yl)-1-methyl-1H-1,2,3-triazole-4-carboxamide] | 4500 | 22900
5 | CCc1nc(-c2ccc3c(c2)CC[C@H]3NC(=O)c2nnc(C)o2)no1 [Compound 618, (R)-N-(5-(5-ethyl-1,2,4-oxadiazol-3-yl)-2,3-dihydro-1H-inden-1-yl)-5-methyl-1,3,4-oxadiazole-2-carboxamide] | 300 | 1100
6 | CCc1nc(-c2ccc3c(c2)CC[C@H]3NC(=O)c2nnc(C)s2)no1 [Compound 619, (R)-N-(5-(5-ethyl-1,2,4-oxadiazol-3-yl)-2,3-dihydro-1H-inden-1-yl)-5-methyl-1,3,4-thiadiazole-2-carboxamide] | 600 | 2500
7 | CCc1nc(-c2ccc3c(c2)CC[C@H]3NC(=O)c2nnn(C)c2C)no1 [Compound 621, (R)-N-(5-(5-ethyl-1,2,4-oxadiazol-3-yl)-2,3-dihydro-1H-inden-1-yl)-1,5-dimethyl-1H-1,2,3-triazole-4-carboxamide] | 1600 | 6100
8 | CCc1nc(-c2ccc3c(c2)CC[C@H]3NC(=O)c2ccccn2)no1 [Compound 623, (R)-N-(5-(5-ethyl-1,2,4-oxadiazol-3-yl)-2,3-dihydro-1H-inden-1-yl)picolinamide] | 400 | 1600
9 | CCc1nc(-c2ccc3c(c2)CC[C@H]3NC(=O)c2cccnc2)no1 [Compound 624, (R)-N-(5-(5-ethyl-1,2,4-oxadiazol-3-yl)-2,3-dihydro-1H-inden-1-yl)nicotinamide] | 400 | 1500
10 | CCc1nc(-c2ccc3c(c2)CC[C@H]3NC(=O)c2cncc(C)c2)no1 [Compound 626, (R)-N-(5-(5-ethyl-1,2,4-oxadiazol-3-yl)-2,3-dihydro-1H-inden-1-yl)-5-methylnicotinamide] | 500 | 1600
11 | CCc1nc(-c2ccc3c(c2)CC[C@H]3NC(=O)c2cnccc2C)no1 [Compound 627, (R)-N-(5-(5-ethyl-1,2,4-oxadiazol-3-yl)-2,3-dihydro-1H-inden-1-yl)-4-methylnicotinamide] | 3500 | 15000
12 | CCc1nc(-c2ccc3c(c2)CC[C@H]3NC(=O)c2ccncc2)no1 [Compound 628, (R)-N-(5-(5-ethyl-1,2,4-oxadiazol-3-yl)-2,3-dihydro-1H-inden-1-yl)isonicotinamide] | 300 | 1000
13 | CCc1nc(-c2ccc3c(c2)CC[C@H]3NC(=O)c2ccncc2C)no1 [Compound 629, (R)-N-(5-(5-ethyl-1,2,4-oxadiazol-3-yl)-2,3-dihydro-1H-inden-1-yl)-3-methylisonicotinamide] | 2100 | 9400
14 | CCc1nc(-c2ccc3c(c2)CC[C@H]3NC(=O)c2ccncn2)no1 [Compound 630, (R)-N-(5-(5-ethyl-1,2,4-oxadiazol-3-yl)-2,3-dihydro-1H-inden-1-yl)pyrimidine-4-carboxamide] | 500 | 1800
15 | CCc1nc(-c2ccc3c(c2)CC[C@H]3NC(=O)c2cc(C)ncn2)no1 [Compound 631, (R)-N-(5-(5-ethyl-1,2,4-oxadiazol-3-yl)-2,3-dihydro-1H-inden-1-yl)-6-methylpyrimidine-4-carboxamide] | 500 | 1800
16 | CCc1nc(-c2ccc3c(c2)CC[C@H]3NC(=O)c2ccnnc2)no1 [Compound 632, (R)-N-(5-(5-ethyl-1,2,4-oxadiazol-3-yl)-2,3-dihydro-1H-inden-1-yl)pyridazine-4-carboxamide] | 500 | 1500
17 | CCc1nc(-c2ccc3c(c2)CC[C@H]3NC(=O)c2nonc2C)no1 [Compound 633, (R)-N-(5-(5-ethyl-1,2,4-oxadiazol-3-yl)-2,3-dihydro-1H-inden-1-yl)-4-methyl-1,2,5-oxadiazole-3-carboxamide] | 200 | 800
18 | CCc1nc(-c2ccc3c(c2)CC[C@H]3NC(=O)c2ccnnc2C)no1 [Compound 637, (R)-N-(5-(5-ethyl-1,2,4-oxadiazol-3-yl)-2,3-dihydro-1H-inden-1-yl)-3-methylpyridazine-4-carboxamide] | 3100 | 11600
19 | CCc1nc(-c2ccc3c(c2)CC[C@H]3NC(=O)c2ocnc2C(F)(F)F)no1 [Compound 639, (R)-N-(5-(5-ethyl-1,2,4-oxadiazol-3-yl)-2,3-dihydro-1H-inden-1-yl)-4-(trifluoromethyl)oxazole-5-carboxamide] | 300 | 1100
20 | CCc1nc(-c2ccc3c(c2)CC[C@H]3NC(=O)c2ccc(=O)n(CC)c2)no1 [Compound 641, (R)-1-ethyl-N-(5-(5-ethyl-1,2,4-oxadiazol-3-yl)-2,3-dihydro-1H-inden-1-yl)-6-oxo-1,6-dihydropyridine-3-carboxamide] | 1400 | 5700
21 | CCc1nc(-c2ccc3c(c2)CC[C@H]3NC(=O)c2ncncc2C)no1 [Compound 643, (R)-N-(5-(5-ethyl-1,2,4-oxadiazol-3-yl)-2,3-dihydro-1H-inden-1-yl)-5-methylpyrimidine-4-carboxamide] | 600 | 2100
22 | Cn1cc(C(=O)N[C@@H]2CCc3cc(-c4noc(C(F)F)n4)ccc32)ccc1=O [Compound 644, (R)-N-(5-(5-(difluoromethyl)-1,2,4-oxadiazol-3-yl)-2,3-dihydro-1H-inden-1-yl)-1-methyl-6-oxo-1,6-dihydropyridine-3-carboxamide] | 1500 | 5900

More lines, now with the values ahead:

Row | CDMF75 IC15 [nM] | IC50 [nM] | SMILES
23 | 400 | 1400 | CCc1nc(-c2ccc3c(c2)CC[C@H]3NC(=O)c2cnon2)no1 [Compound 615, (R)-N-(5-(5-ethyl-1,2,4-oxadiazol-3-yl)-2,3-dihydro-1H-inden-1-yl)-1,2,5-oxadiazole-3-carboxamide]
24 | 200 | 600 | CCc1nc(-c2ccc3c(c2)CC[C@H]3NC(=O)c2cc(Cl)no2)no1 [Compound 620, (R)-3-chloro-N-(5-(5-ethyl-1,2,4-oxadiazol-3-yl)-2,3-dihydro-1H-inden-1-yl)isoxazole-5-carboxamide]
25 | 900 | 3600 | CCc1nc(-c2ccc3c(c2)CC[C@H]3NC(=O)c2ncoc2C)no1 [Compound 622, (R)-N-(5-(5-ethyl-1,2,4-oxadiazol-3-yl)-2,3-dihydro-1H-inden-1-yl)-5-methyloxazole-4-carboxamide]
26 | 800 | 3000 | CCc1nc(-c2ccc3c(c2)CC[C@H]3NC(=O)c2ccc(C)nc2)no1 [Compound 625, (R)-N-(5-(5-ethyl-1,2,4-oxadiazol-3-yl)-2,3-dihydro-1H-inden-1-yl)-6-methylnicotinamide]
27 | 500 | 2100 | CCc1nc(-c2ccc3c(c2)CC[C@H]3NC(=O)c2cc(O)no2)no1 [Compound 634, (R)-N-(5-(5-ethyl-1,2,4-oxadiazol-3-yl)-2,3-dihydro-1H-inden-1-yl)-3-hydroxyisoxazole-5-carboxamide]
28 | 300 | 1100 | CCc1nc(-c2ccc3c(c2)CC[C@H]3NC(=O)c2cc(OC)no2)no1 [Compound 635, (R)-N-(5-(5-ethyl-1,2,4-oxadiazol-3-yl)-2,3-dihydro-1H-inden-1-yl)-3-methoxyisoxazole-5-carboxamide]
29 | 600 | 2200 | CCc1nc(-c2ccc3c(c2)CC[C@H]3NC(=O)c2ncc(C)o2)no1 [Compound 636, (R)-N-(5-(5-ethyl-1,2,4-oxadiazol-3-yl)-2,3-dihydro-1H-inden-1-yl)-5-methyloxazole-2-carboxamide]
30 | 1000 | 3900 | CCc1nc(-c2ccc3c(c2)CC[C@H]3NC(=O)c2cnc(O)o2)no1 [Compound 638, (R)-N-(5-(5-ethyl-1,2,4-oxadiazol-3-yl)-2,3-dihydro-1H-inden-1-yl)-2-hydroxyoxazole-5-carboxamide]
31 | 500 | 2100 | CCc1nc(-c2ccc3c(c2)CC[C@H]3NC(=O)c2ncc(C)s2)no1 [Compound 640, (R)-N-(5-(5-ethyl-1,2,4-oxadiazol-3-yl)-2,3-dihydro-1H-inden-1-yl)-5-methylthiazole-2-carboxamide]
32 | 1400 | 5800 | CCc1nc(-c2ccc3c(c2)CC[C@H]3NC(=O)c2ccc(C)cn2)no1 [Compound 642, (R)-N-(5-(5-ethyl-1,2,4-oxadiazol-3-yl)-2,3-dihydro-1H-inden-1-yl)-5-methylpicolinamide]
